Test results published in ChEMBL document CHEMBL3045851, “Design, synthesis, and in vitro antimicrobial activities of novel azetidinyl-3-quinazolin-4-one hybrids” (2012).
≈ marks a conversion by molar mass, not a printed value.

Tests used:
Type in all cases: functional
Streptococcus pyogenes = experiment: Antibacterial activity against Streptococcus pyogenes MTCC 442 after overnight incubation by broth dilution method
Pseudomonas aeruginosa = experiment: Antibacterial activity against Pseudomonas aeruginosa MTCC 1688 after overnight incubation by broth dilution method
Klebsiella pneumoniae = experiment: Antibacterial activity against Klebsiella pneumoniae MTCC 109 after overnight incubation by broth dilution method
Salmonella typhimurium = experiment: Antibacterial activity against Salmonella enterica subsp. enterica serovar Typhimurium MTCC 98 after overnight incubation by broth dilution method
Staphylococcus aureus = experiment: Antibacterial activity against Staphylococcus aureus MTCC 96 after overnight incubation by broth dilution method
Escherichia coli = experiment: Antibacterial activity against Escherichia coli MTCC 443 after overnight incubation by broth dilution method
[1] = system: Mycobacterium tuberculosis; experiment: Growth inhibition of Mycobacterium tuberculosis H37Rv MTCC 200 at 0.2 ug/ml after 28 days by Lowenstein-Jensen method; conditions: H37Rv MTCC 200, 672 h, read-out: GI
[2] = system: Mycobacterium tuberculosis; experiment: Growth inhibition of Mycobacterium tuberculosis H37Rv MTCC 200 at 100 ug/ml after 28 days by Lowenstein-Jensen method; conditions: H37Rv MTCC 200, 672 h, read-out: GI
Candida albicans = experiment: Antifungal activity against Candida albicans MTCC 227 by broth microdilution method
Aspergillus clavatus = experiment: Antifungal activity against Aspergillus clavatus MTCC 1323 by broth microdilution method
Bacillus subtilis = experiment: Antibacterial activity against Bacillus subtilis MTCC 441 after overnight incubation by broth dilution method
Aspergillus niger = experiment: Antifungal activity against Aspergillus niger MTCC 282 by broth microdilution method
[3] = system: Mycobacterium tuberculosis; experiment: Growth inhibition of Mycobacterium tuberculosis H37Rv MTCC 200 at 250 ug/ml after 28 days by Lowenstein-Jensen method; conditions: H37Rv MTCC 200, 672 h, read-out: GI
[4] = system: Mycobacterium tuberculosis; experiment: Growth inhibition of Mycobacterium tuberculosis H37Rv MTCC 200 at 62.5 ug/ml after 28 days by Lowenstein-Jensen method; conditions: H37Rv MTCC 200, 672 h, read-out: GI
[5] = system: Mycobacterium tuberculosis; experiment: Growth inhibition of Mycobacterium tuberculosis H37Rv MTCC 200 at 40 ug/ml after 28 days by Lowenstein-Jensen method
[6] = system: Mycobacterium tuberculosis; experiment: Growth inhibition of Mycobacterium tuberculosis H37Rv MTCC 200 at 500 ug/ml after 28 days by Lowenstein-Jensen method; conditions: H37Rv MTCC 200, 672 h, read-out: GI
[7] = system: Mycobacterium tuberculosis; experiment: Growth inhibition of Mycobacterium tuberculosis H37Rv MTCC 200 at 270 ug/ml after 28 days by Lowenstein-Jensen method; conditions: H37Rv MTCC 200, 672 h, read-out: GI
[8] = system: Mycobacterium tuberculosis; experiment: Growth inhibition of Mycobacterium tuberculosis H37Rv MTCC 200 at 259 ug/ml after 28 days by Lowenstein-Jensen method; conditions: H37Rv MTCC 200, 672 h, read-out: GI
[9] = system: Mycobacterium tuberculosis; experiment: Growth inhibition of Mycobacterium tuberculosis H37Rv MTCC 200 at 50 ug/ml after 28 days by Lowenstein-Jensen method; conditions: H37Rv MTCC 200, 672 h, read-out: GI

Compound	MIC99 (Streptococcus pyogenes) [µg/mL]	MIC99 (Pseudomonas aeruginosa) [µg/mL]	MIC99 (Klebsiella pneumoniae) [µg/mL]	MIC99 (Salmonella typhimurium) [µg/mL]	MIC99 (Staphylococcus aureus) [µg/mL]	MIC99 (Escherichia coli) [µg/mL]	inhibition of growth at 0.2 µg/mL [1] [%]	inhibition of growth at 100 µg/mL [2] [%]	MIC99 (Candida albicans) [µg/mL]	MIC99 (Aspergillus clavatus) [µg/mL]	MIC99 (Bacillus subtilis) [µg/mL]	MIC99 (Aspergillus niger) [µg/mL]	inhibition of growth at 250 µg/mL [3] [%]	inhibition of growth at 62.5 µg/mL [4] [%]	inhibition of growth at 40 µg/mL ([5]; H37Rv MTCC 200, 672 h, read-out: GI) [%]	inhibition of growth at 500 µg/mL [6] [%]	inhibition of growth at 270 µg/mL [7] [%]	growth inhibition (GI) [5] [%]	inhibition of growth at 259 µg/mL [8] [%]	inhibition of growth at 50 µg/mL [9] [%]
O=C(N[C@H](CO)[C@H](O)c1ccc([N+](=O)[O-])cc1)C(Cl)Cl [CHLORAMPHENICOL]	50 (≈ 155 µM)	50 (≈ 155 µM)	50 (≈ 155 µM)	50 (≈ 155 µM)	50 (≈ 155 µM)	50 (≈ 155 µM)	–	–	–	–	–	–	–	–	–	–	–	–	–	–
CC1(C)S[C@@H]2[C@H](NC(=O)[C@H](N)c3ccccc3)C(=O)N2[C@H]1C(=O)O [AMPICILLIN]	100 (≈ 286 µM)	100 (≈ 286 µM)	100 (≈ 286 µM)	100 (≈ 286 µM)	250 (≈ 715 µM)	100 (≈ 286 µM)	99	–	–	–	–	–	–	–	–	–	–	–	–	–
O=C(Nn1c(CNN2C(=O)C(Cl)C2c2ccc(Br)cc2)nc2ccccc2c1=O)c1ccncc1 (stereo unspecified)	200 (≈ 361 µM)	200 (≈ 361 µM)	500 (≈ 903 µM)	100 (≈ 181 µM)	200 (≈ 361 µM)	62.5 (≈ 113 µM)	–	97	500 (≈ 903 µM)	500 (≈ 903 µM)	200 (≈ 361 µM)	1000 (≈ 1810 µM)	–	–	–	–	–	–	–	–
O=C(Nn1c(CNN2C(=O)C(Cl)C2c2ccccc2O)nc2ccccc2c1=O)c1ccncc1 (stereo unspecified)	250 (≈ 509 µM)	125 (≈ 255 µM)	250 (≈ 509 µM)	125 (≈ 255 µM)	250 (≈ 509 µM)	100 (≈ 204 µM)	–	–	250 (≈ 509 µM)	1000 (≈ 2040 µM)	250 (≈ 509 µM)	1000 (≈ 2040 µM)	97	–	–	–	–	–	–	–
O=C(Nn1c(CNN2C(=O)C(Cl)C2c2ccc(Cl)cc2)nc2ccccc2c1=O)c1ccncc1 (stereo unspecified)	500 (≈ 982 µM)	100 (≈ 196 µM)	100 (≈ 196 µM)	100 (≈ 196 µM)	500 (≈ 982 µM)	50 (≈ 98.2 µM)	–	–	250 (≈ 491 µM)	1000 (≈ 1960 µM)	250 (≈ 491 µM)	1000 (≈ 1960 µM)	–	99	–	–	–	–	–	–
CO[C@H]1/C=C/O[C@@]2(C)Oc3c(C)c(O)c4c(O)c(c(/C=N/N5CCN(C)CC5)c(O)c4c3C2=O)NC(=O)/C(C)=C\C=C\[C@H](C)[C@H](O)[C@@H](C)[C@@H](O)[C@@H](C)[C@H](OC(C)=O)[C@@H]1C [RIFAMPIN]	–	–	–	–	–	–	–	–	–	–	–	–	–	–	98	–	–	–	–	–
COC1=CC(=O)C[C@@H](C)[C@]12Oc1c(Cl)c(OC)cc(OC)c1C2=O [GRISEOFULVIN]	–	–	–	–	–	–	–	–	500 (≈ 1420 µM)	100 (≈ 283 µM)	–	100 (≈ 283 µM)	–	–	–	–	–	–	–	–
O=C(Nn1c(CNN2C(=O)C(Cl)C2c2ccccc2Cl)nc2ccccc2c1=O)c1ccncc1 (stereo unspecified)	500 (≈ 982 µM)	250 (≈ 491 µM)	100 (≈ 196 µM)	500 (≈ 982 µM)	500 (≈ 982 µM)	250 (≈ 491 µM)	–	–	200 (≈ 393 µM)	250 (≈ 491 µM)	500 (≈ 982 µM)	200 (≈ 393 µM)	–	–	–	98	–	–	–	–
O=C(Nn1c(CNN2C(=O)C(Cl)C2c2ccccc2)nc2ccccc2c1=O)c1ccncc1 (stereo unspecified)	250 (≈ 526 µM)	125 (≈ 263 µM)	200 (≈ 421 µM)	200 (≈ 421 µM)	250 (≈ 526 µM)	200 (≈ 421 µM)	–	–	1000 (≈ 2110 µM)	500 (≈ 1050 µM)	100 (≈ 211 µM)	500 (≈ 1050 µM)	–	–	–	98	–	–	–	–
NNC(=O)c1ccncc1 [ISONIAZID]	–	–	–	–	–	–	99	–	–	–	–	–	–	–	–	–	–	–	–	–
NYSTATIN	–	–	–	–	–	–	–	–	100	100	–	100	–	–	–	–	–	–	–	–
O=C(Nn1c(CNN2C(=O)C(Cl)C2c2ccccc2[N+](=O)[O-])nc2ccccc2c1=O)c1ccncc1 (stereo unspecified)	250 (≈ 481 µM)	200 (≈ 385 µM)	250 (≈ 481 µM)	250 (≈ 481 µM)	200 (≈ 385 µM)	100 (≈ 192 µM)	–	99	1000 (≈ 1920 µM)	500 (≈ 962 µM)	250 (≈ 481 µM)	500 (≈ 962 µM)	–	–	–	–	–	–	–	–
O=C(Nn1c(CNN2C(=O)C(Cl)C2c2cccc([N+](=O)[O-])c2)nc2ccccc2c1=O)c1ccncc1 (stereo unspecified)	500 (≈ 962 µM)	250 (≈ 481 µM)	500 (≈ 962 µM)	250 (≈ 481 µM)	500 (≈ 962 µM)	250 (≈ 481 µM)	–	–	1000 (≈ 1920 µM)	> 1000	200 (≈ 385 µM)	> 1000	–	–	–	–	97	–	–	–
CCc1ccc(C2C(Cl)C(=O)N2NCc2nc3ccccc3c(=O)n2NC(=O)c2ccncc2)cc1 (stereo unspecified)	250 (≈ 497 µM)	500 (≈ 994 µM)	250 (≈ 497 µM)	125 (≈ 249 µM)	200 (≈ 398 µM)	200 (≈ 398 µM)	–	–	1000 (≈ 1990 µM)	> 1000	100 (≈ 199 µM)	> 1000	–	–	–	97	–	–	–	–
GENTAMICIN	0.5	1	0.05	1	0.25	0.05	–	–	–	–	–	–	–	–	–	–	–	98	–	–
O=C(O)c1cn(C2CC2)c2cc(N3CCNCC3)c(F)cc2c1=O [CIPROFLOXACIN]	50 (≈ 151 µM)	25 (≈ 75.4 µM)	25 (≈ 75.4 µM)	25 (≈ 75.4 µM)	50 (≈ 151 µM)	25 (≈ 75.4 µM)	–	–	–	–	–	–	–	–	–	–	–	–	–	–
COc1ccc(C2C(Cl)C(=O)N2NCc2nc3ccccc3c(=O)n2NC(=O)c2ccncc2)cc1 (stereo unspecified)	200 (≈ 396 µM)	500 (≈ 990 µM)	62.5 (≈ 124 µM)	500 (≈ 990 µM)	125 (≈ 248 µM)	500 (≈ 990 µM)	–	–	200 (≈ 396 µM)	200 (≈ 396 µM)	250 (≈ 495 µM)	250 (≈ 495 µM)	–	–	–	–	–	–	98	–
CCn1cc(C(=O)O)c(=O)c2cc(F)c(N3CCNCC3)cc21 [NORFLOXACIN]	10 (≈ 31.3 µM)	10 (≈ 31.3 µM)	10 (≈ 31.3 µM)	10 (≈ 31.3 µM)	10 (≈ 31.3 µM)	10 (≈ 31.3 µM)	–	–	–	–	–	–	–	–	–	–	–	–	–	–
O=C(Nn1c(CNN2C(=O)C(Cl)C2c2ccc([N+](=O)[O-])cc2)nc2ccccc2c1=O)c1ccncc1 (stereo unspecified)	125 (≈ 240 µM)	150 (≈ 289 µM)	200 (≈ 385 µM)	200 (≈ 385 µM)	100 (≈ 192 µM)	150 (≈ 289 µM)	–	–	500 (≈ 962 µM)	> 1000	100 (≈ 192 µM)	> 1000	–	–	–	–	–	–	–	99
O=C(Nn1c(CNN2C(=O)C(Cl)C2c2ccc(O)cc2)nc2ccccc2c1=O)c1ccncc1 (stereo unspecified)	250 (≈ 509 µM)	250 (≈ 509 µM)	250 (≈ 509 µM)	250 (≈ 509 µM)	200 (≈ 407 µM)	250 (≈ 509 µM)	–	–	500 (≈ 1020 µM)	> 1000	250 (≈ 509 µM)	> 1000	97	–	–	–	–	–	–	–
